What all share (format): functional
The test system of one test is Pseudomonas aeruginosa. Kind of test: Antibacterial activity against Pseudomonas aeruginosa ATCC BAA-427 by spectrophotometric method.
The subject of test [1] is Klebsiella pneumoniae. The test is described as follows: Antibacterial activity against Klebsiella pneumoniae ATCC 27736 by spectrophotometric method.
The test system of the next test is Staphylococcus aureus. The test is described as follows: Antibacterial activity against Staphylococcus aureus ATCC 25923 by spectrophotometric method.
The test system of another test is Escherichia coli. Kind of test: Antibacterial activity against Escherichia coli ATCC 9637 by spectrophotometric method. The following applies: W.
For the next test, the system named is Candida parapsilosis. Kind of test: Antifungal activity against Candida parapsilosis ATCC 22019 by spectrophotometric method. As to conditions: Lodderomyces parapsilosis.
The subject of another test is Cryptococcus neoformans. Kind of test: Antifungal activity against Cryptococcus neoformans by spectrophotometric method.
The subject of another test is Candida albicans. Kind of test: Antifungal activity against Candida albicans by spectrophotometric method.
Another test concerns Sporothrix schenckii. The test is described as follows: Antifungal activity against Sporothrix schenckii by spectrophotometric method.
For test [2], the system named is Trichophyton mentagrophytes. The test is described as follows: Antifungal activity against Trichophyton mentagrophytes by spectrophotometric method.
Another test relates to Aspergillus fumigatus. Kind of test: Antifungal activity against Aspergillus fumigatus by spectrophotometric method.
In test [3] the test system is Klebsiella pneumoniae. The test is described as follows: Potency index, ratio of gentamicin MIC to compound MIC for Klebsiella pneumoniae ATCC 27736.
Test [4] concerns Klebsiella pneumoniae. Kind of test: Potency index, ratio of amphicillin MIC to compound MIC for Klebsiella pneumoniae ATCC 27736.

≈ marks a conversion by molar mass, not a printed value.

A word on the MIC: it is the smallest concentration in the dilution series that meets the test's criterion for growth inhibition. Low values mean a more susceptible organism, high ones a less susceptible organism. For the molecule GENTAMICIN, the MIC in the test with Pseudomonas aeruginosa amounted to 0.78 µg/mL; in the test with Klebsiella pneumoniae [1] it was 0.78 µg/mL; against Staphylococcus aureus it was 0.39 µg/mL; with Escherichia coli, 0.78 µg/mL.

On to `CCOC(=O)[C@]1(C#N)[C@@H](c2c(F)cccc2Cl)CN(C)[C@@]12C(=O)Nc1ccc([N+](=O)[O-])cc12`, for which the MIC against Candida parapsilosis was 50 µg/mL (≈ 106 µM); in the test on Cryptococcus neoformans, 50 µg/mL (≈ 106 µM); against Pseudomonas aeruginosa it was over 50 µg/mL; with Candida albicans, 50 µg/mL (≈ 106 µM); in the test on Sporothrix schenckii it was over 50 µg/mL; in test [2] it was over 50 µg/mL. The MIC against Aspergillus fumigatus was over 50 µg/mL; with Klebsiella pneumoniae [1] it was 50 µg/mL (≈ 106 µM); in the test with Staphylococcus aureus it was over 50 µg/mL; in the test on Escherichia coli, over 50 µg/mL.

As for `N#CC1(C#N)[C@@H](c2ccc(Cl)c(Cl)c2)C2CSCN2[C@@]12C(=O)Nc1ccccc12` (some centres not stated), the MIC was over 50 µg/mL against Candida parapsilosis; over 50 µg/mL in the test on Cryptococcus neoformans; over 50 µg/mL in the test with Pseudomonas aeruginosa; over 50 µg/mL in the test on Candida albicans; over 50 µg/mL in the test on Sporothrix schenckii; 50 µg/mL (≈ 113 µM) in test [2]. In addition, the MIC is over 50 µg/mL in the test on Aspergillus fumigatus, 0.005 µg/mL (≈ 0.0113 µM) with Klebsiella pneumoniae [1], over 50 µg/mL in the test on Staphylococcus aureus and over 50 µg/mL against Escherichia coli. In addition, the Ratio in the test on Klebsiella pneumoniae [3] was 156; in the test with Klebsiella pneumoniae [4], 78.

As to `N#CC1(C#N)[C@@H](c2cccc([N+](=O)[O-])c2)C2CSCN2[C@@]12C(=O)Nc1ccccc12` (some centres not stated), the MIC (in the test on Candida parapsilosis; in the test with Cryptococcus neoformans; against Pseudomonas aeruginosa; with Candida albicans; in the test on Sporothrix schenckii; in test [2]) was over 50 µg/mL throughout. The MIC with Aspergillus fumigatus is over 50 µg/mL; in the test on Klebsiella pneumoniae [1] it was 0.19 µg/mL (≈ 0.455 µM); in the test on Staphylococcus aureus it was over 50 µg/mL; against Escherichia coli, over 50 µg/mL.

In the case of `CCOC(=O)[C@]1(C#N)[C@@H](c2ccc(Cl)c(Cl)c2)CN(C)[C@@]12C(=O)Nc1c(C)cc(C)cc12`, the MIC is over 50 µg/mL against Candida parapsilosis; over 50 µg/mL against Cryptococcus neoformans; over 50 µg/mL against Pseudomonas aeruginosa; over 50 µg/mL in the test with Candida albicans; over 50 µg/mL in the test on Sporothrix schenckii; 50 µg/mL (≈ 106 µM) in test [2]. In addition, the MIC with Aspergillus fumigatus was over 50 µg/mL; against Klebsiella pneumoniae [1], 6.25 µg/mL (≈ 13.2 µM); in the test on Staphylococcus aureus, over 50 µg/mL; against Escherichia coli it was over 50 µg/mL.

As to `CCOC(=O)[C@]1(C#N)[C@@H](c2ccc(Cl)c(Cl)c2)CN(C)[C@@]12C(=O)Nc1ccc(Cl)cc12`, the MIC (in the test with Candida parapsilosis; in the test on Cryptococcus neoformans; in the test on Pseudomonas aeruginosa; with Candida albicans; with Sporothrix schenckii; in test [2]) was over 50 µg/mL throughout. The MIC with Aspergillus fumigatus was over 50 µg/mL; against Klebsiella pneumoniae [1], 50 µg/mL (≈ 104 µM); in the test with Staphylococcus aureus, over 50 µg/mL; with Escherichia coli, over 50 µg/mL.

For `CCOC(=O)[C@]1(C#N)[C@@H](c2cccs2)C2CSCN2[C@@]12C(=O)Nc1ccccc12` (some centres not stated), the MIC is over 50 µg/mL in the test on Candida parapsilosis; over 50 µg/mL against Cryptococcus neoformans; over 50 µg/mL against Pseudomonas aeruginosa; over 50 µg/mL with Candida albicans; over 50 µg/mL against Sporothrix schenckii; 50 µg/mL (≈ 117 µM) in test [2]. In addition, the MIC is over 50 µg/mL against Aspergillus fumigatus, 0.09 µg/mL (≈ 0.211 µM) with Klebsiella pneumoniae [1], over 50 µg/mL against Staphylococcus aureus and over 50 µg/mL against Escherichia coli.

Regarding `CCOC(=O)[C@]1(C#N)[C@@H](c2c(F)cccc2Cl)C2CSCN2[C@@]12C(=O)Nc1ccccc12` (some centres not stated), the MIC against Candida parapsilosis is over 50 µg/mL; in the test on Cryptococcus neoformans it was over 50 µg/mL; against Pseudomonas aeruginosa it was over 50 µg/mL; in the test on Candida albicans, over 50 µg/mL; with Sporothrix schenckii, over 50 µg/mL; in test [2], 50 µg/mL (≈ 106 µM). Besides, the MIC against Aspergillus fumigatus is over 50 µg/mL; in the test on Klebsiella pneumoniae [1], 0.045 µg/mL (≈ 0.0954 µM); against Staphylococcus aureus, over 50 µg/mL; with Escherichia coli, over 50 µg/mL.

Consider `OC(Cn1cncn1)(Cn1cncn1)c1ccc(F)cc1F` [FLUCONAZOLE], for which the MIC came to 1 µg/mL (≈ 3.27 µM) in the test on Candida parapsilosis; 0.5 µg/mL (≈ 1.63 µM) against Cryptococcus neoformans; 1 µg/mL (≈ 3.27 µM) in the test with Candida albicans; 2 µg/mL (≈ 6.53 µM) with Sporothrix schenckii; 1 µg/mL (≈ 3.27 µM) in test [2]; 2 µg/mL (≈ 6.53 µM) with Aspergillus fumigatus.

On to `CCOC(=O)[C@]1(C#N)[C@@H](c2c(F)cccc2Cl)CN(C)[C@@]12C(=O)Nc1c(C)cc(C)cc12`, for which the MIC in the test with Candida parapsilosis was 50 µg/mL (≈ 110 µM); in the test with Cryptococcus neoformans, 50 µg/mL (≈ 110 µM); with Pseudomonas aeruginosa, over 50 µg/mL; in the test with Candida albicans, 50 µg/mL (≈ 110 µM); in the test on Sporothrix schenckii, 25 µg/mL (≈ 54.8 µM); in [2], 12.5 µg/mL (≈ 27.4 µM). The MIC in the test with Aspergillus fumigatus was 25 µg/mL (≈ 54.8 µM); in the test on Klebsiella pneumoniae [1], 3.12 µg/mL (≈ 6.84 µM); with Staphylococcus aureus, 12.5 µg/mL (≈ 27.4 µM); in the test on Escherichia coli, over 50 µg/mL.

For the molecule `C[C@@H]1[C@H](O)[C@@H](C)/C=C/C=C/C=C/C=C/C=C/C=C/C=C/[C@H](O[C@@H]2O[C@H](C)[C@@H](O)[C@H](N)[C@@H]2O)C[C@@H]2O[C@](O)(C[C@@H](O)C[C@@H](O)[C@H](O)CC[C@@H](O)C[C@@H](O)CC(=O)O[C@H]1C)C[C@H](O)[C@H]2C(=O)O` [AMPHOTERICIN B], the MIC turned out to be 0.12 µg/mL (≈ 0.13 µM) in the test on Candida parapsilosis; 0.12 µg/mL (≈ 0.13 µM) in the test on Cryptococcus neoformans; 0.06 µg/mL (≈ 0.0649 µM) in the test with Candida albicans; 0.12 µg/mL (≈ 0.13 µM) with Sporothrix schenckii; 0.12 µg/mL (≈ 0.13 µM) in [2]; 0.5 µg/mL (≈ 0.541 µM) in the test with Aspergillus fumigatus.

As for `CC1(C)S[C@@H]2[C@H](NC(=O)[C@H](N)c3ccccc3)C(=O)N2[C@H]1C(=O)O` [AMPICILLIN], the MIC stood at 50 µg/mL (≈ 143 µM) in the test with Pseudomonas aeruginosa, 0.39 µg/mL (≈ 1.12 µM) against Klebsiella pneumoniae [1], 0.19 µg/mL (≈ 0.544 µM) with Staphylococcus aureus and 50 µg/mL (≈ 143 µM) in the test on Escherichia coli.

With `CCOC(=O)[C@]1(C#N)[C@@H](c2c(F)cccc2Cl)CN(C)[C@@]12C(=O)Nc1ccc(Cl)cc12`, the MIC was 50 µg/mL (≈ 108 µM) in the test with Candida parapsilosis; 50 µg/mL (≈ 108 µM) in the test on Cryptococcus neoformans; over 50 µg/mL in the test on Pseudomonas aeruginosa; 50 µg/mL (≈ 108 µM) in the test on Candida albicans; 50 µg/mL (≈ 108 µM) in the test on Sporothrix schenckii; 50 µg/mL (≈ 108 µM) in test [2]. For the same molecule, the MIC with Aspergillus fumigatus was 50 µg/mL (≈ 108 µM); in the test with Klebsiella pneumoniae [1], 25 µg/mL (≈ 54.1 µM); with Staphylococcus aureus it was over 50 µg/mL; in the test with Escherichia coli it was over 50 µg/mL.

For `CCOC(=O)[C@]1(C#N)[C@@H](c2ccc(Cl)cc2)CN(C)[C@@]12C(=O)Nc1c(C)cc(C)cc12`, the MIC in the test with Candida parapsilosis was 50 µg/mL (≈ 114 µM); against Cryptococcus neoformans, 50 µg/mL (≈ 114 µM); in the test with Pseudomonas aeruginosa it was over 50 µg/mL; against Candida albicans, 50 µg/mL (≈ 114 µM); in the test with Sporothrix schenckii, 50 µg/mL (≈ 114 µM); in [2] it was 50 µg/mL (≈ 114 µM). The minimum inhibitory concentration (MIC) in the test with Aspergillus fumigatus was 50 µg/mL (≈ 114 µM); against Klebsiella pneumoniae [1], 1.56 µg/mL (≈ 3.56 µM); with Staphylococcus aureus, 50 µg/mL (≈ 114 µM); against Escherichia coli it was over 50 µg/mL.

Turning to `CN1C[C@H](c2ccc(Cl)c(Cl)c2)C(C#N)(C#N)[C@]12C(=O)Nc1ccc(Cl)cc12`, the MIC against Candida parapsilosis was over 50 µg/mL; with Cryptococcus neoformans, over 50 µg/mL; against Pseudomonas aeruginosa, over 50 µg/mL; in the test on Candida albicans it was over 50 µg/mL; in the test with Sporothrix schenckii it was 50 µg/mL (≈ 116 µM); in test [2], over 50 µg/mL. The MIC was over 50 µg/mL against Aspergillus fumigatus, 6.25 µg/mL (≈ 14.5 µM) against Klebsiella pneumoniae [1], over 50 µg/mL in the test with Staphylococcus aureus and over 50 µg/mL with Escherichia coli.

Turning to `CCOC(=O)[C@]1(C#N)[C@@H](c2ccc(OC)cc2)CN(C)[C@@]12C(=O)Nc1c(C)cc(C)cc12`, the MIC in the test on Candida parapsilosis was over 50 µg/mL; in the test on Cryptococcus neoformans, over 50 µg/mL; in the test with Pseudomonas aeruginosa it was over 50 µg/mL; in the test on Candida albicans it was over 50 µg/mL; with Sporothrix schenckii, over 50 µg/mL; in test [2], 50 µg/mL (≈ 115 µM). The MIC against Aspergillus fumigatus was over 50 µg/mL; with Klebsiella pneumoniae [1], 25 µg/mL (≈ 57.7 µM); in the test on Staphylococcus aureus, over 50 µg/mL; with Escherichia coli it was over 50 µg/mL.

For the origin of these results see ChEMBL document CHEMBL4024739, “Diversity-oriented sustainable synthesis of antimicrobial spiropyrrolidine/thiapyrrolizidine oxindole derivatives: New ligands for a metallo-β-lactamase from Klebsiella pneumonia” (2017).
